Assay results as given in patent publication US20150346214A1, “DETECTION OF MEMBRANE PROTEINS” (priority 2012, published 2015).

Tests used:
[1] = target: E. coli ammonium channel C-terminally fused to green fluorescent protein (AmtB-GFP) (Escherichia coli, UniProt P69681, S65T); conditions: AmtB-GFP trimer in MS buffer with 2x CMC of the detergent; charge state envelopes modelled with a Gaussian
Procedure: The activation energy required to achieve resolved peaks of E. coli ammonium channel C-terminally fused to green fluorescent protein (AmtB-GFP) was assessed for a variety of non-ionic detergents.
AmtB-GFP was extracted from purified membranes (described above) with 1-2% (w/v) of the detergent of interest in Buffer B and incubated for one to three hours at room temperature or overnight at 4° C. Insoluble material was pelleted by centrifugation at 20,000 g for 25 minutes at 4° C. The clarified supernatant was loaded onto small Ni-NTA agarose (Qiagen) drip columns (Bio-spin Chromatography columns, Bio-Rad) and washed with several column volumes of Buffer C (200 mM sodium chloride, 20 mM Imidazole, 5 mM BME, 2× CMC detergent of interest, and 50 mM TRIS, pH 8.0 at room temperature). AmtB-GFP was eluted with two column volumes of Buffer D (100 mM sodium chloride, 250 mM Imidazole, 5 mM BME, 2× CMC detergent of interest, and 50 mM TRIS, pH 8.0 at room temperature). Eluted protein was concentrated using a 100 kDa MWCO concentrator and buffer exchanged into MS Buffer (2× CMC detergent of interest and 200 mM Ammonium Acetate, pH 8.0 with Ammonium Hydroxide) using a centrifugal buffer exchange device (Micro Bio-Spin 6, Bio-Rad).
Buffer exchanged protein was analysed on a Q-TOF 2 mass spectrometer (Micromass, Manchester, UK) with a Z-spray source including modifications for protein complexes after introduction of complexes from gold-coated nanoflow capillaries.

[2] = target: T1, mechanosensitive channel of large conductance (MscL) (Mycobacterium tuberculosis, UniProt P9WJN5); assay: Phospholipid binding to MscL resolved by native MS / IM-MS in C8E4; conditions: optimised P:L:D ratio of Table 2
T1 sequence (P9WJN5 1-151): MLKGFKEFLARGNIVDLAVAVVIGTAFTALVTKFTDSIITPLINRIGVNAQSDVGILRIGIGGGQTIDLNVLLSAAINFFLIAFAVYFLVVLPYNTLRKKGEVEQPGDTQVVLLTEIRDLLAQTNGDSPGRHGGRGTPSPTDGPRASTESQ

ammonium channel (AmtB) = ammonium channel (AmtB) (Escherichia coli, UniProt P69681); assay: Mass spectra and ion mobility MS of AmtB complex in three detergents (Example 2); set-up: species or system E. coli; conditions: for experimental collisional cross section (CCS) / folded state: AmtB, IM-MS, CIU fingerprints, C8E4 at ELAB <1500; for species in mass spectrum (expected oligomer versus dissociation products): trimeric AmtB, sample cone 10 volts, collision voltage 200 volts
Procedure: (§1) AmtB-GFP and AQPZ-GFP were extracted from purified membranes in 2% OG in Buffer B and incubated overnight at 4° C. Extracted membrane proteins were clarified by centrifugation at 20,000 g for 25 minutes at 4° C. The clarified supernatant was filtered before loading onto a 5 mL HisTrap-HP column (GE Healthcare, Piscataway, NJ) equilibrated in Buffer E (200 mM sodium chloride, 10% glycerol, 20 mM Imidazole, 0.025% DDM, and 50 mM TRIS, pH 7.4 at room temperature). After the clarified supernatant was loaded, the column was initially washed with 40-50 mL of Buffer E containing 1% OG instead of DDM followed by several column volumes of Buffer E until a steady baseline was reached. Protein was eluted with a linear gradient to 100% in two column volumes of Buffer F (100 mM sodium chloride, 10% glycerol, 500 mM Imidazole, 0.025% DDM, and 50 mM TRIS, pH 7.4 at room temperature). Peak fractions were pooled, supplemented with 5mM BME and His-tagged TEV protease, arid dialyzed against Buffer G (150 mM sodium chloride, 10% glycerol, 20 mM Imidazole, 0.02% DDM, and 50 mM TRIS, pH 7.4 at room temperature) overnight at 4° C. After overnight incubation at 4° C., samples were filtered and passed back over a 5 mL. HisTrap-HP column equilibrated in Buffer E. Flow through containing the untagged membrane protein was collected and concentrated using a 100 kDa MWCO concentrator. Concentrated protein was flash frozen in liquid nitrogen and stored at -80° C.
(§2) Frozen samples were thawed on ice prior to detergent exchange over gel filtration. Samples were injected on a Superdex 200 10/300 (GE Healthcare) equilibrated in Buffer H (130 mM sodium chloride, 10% glycerol, and 50 mM TRIS, pH 7.4 at room temperature) supplemented with 0.5% of C8E4, 0.4% of NG, or 0.02% of DDM. Peak fractions were concentrated using a 100 kDa MWCO concentrator. Concentrated protein was either used directly or flash-frozen in liquid nitrogen and stored at −80° C. Purified membrane proteins were buffer exchanged into MS Buffer (2× CMC detergent of interest and 200 mM Ammonium Acetate, pH 8.0 with Ammonium Hydroxide) using a centrifugal buffer exchange device (Micro Bio-Spin 6, Bio-Rad).
(§3) Buffer exchanged protein was analysed on a quadrupole ion mobility time-of-flight mass spectrometer (Synapt HDMS, Waters Corp.) modified with an 18 cm drift cell with radial RF confinement (RF amplitude 200 V) and a linear voltage gradient along the axis of ion transmission such that collision cross section (CCS) values could be determined directly.
(§4) Mass spectra were acquired with instrument set to 10 volts for sample cone and 200 volts for collision voltage.
(§5) The preservation of native structure is most likely due to the charge reducing behaviour of C8E4, as well as other polyoxyalkylene glycol detergents, which results in a two to five fold reduction in activation energy. In addition, under ELAB values slightly greater than 1500, the CCS value increases consistent with partial unfolding. More importantly, gas-phase unfolding can be observed for these membrane complexes at ELAB values of 1750 to 2250. These gas-phase unfolding transitions can be altered in the presence of a drug molecule that stabilises protein structure, thereby enabling the detection of drug molecules that stabilise protein structure.

Aquaporin Z (AQPZ) [3] = target: T2, Aquaporin Z (AQPZ) (Escherichia coli, UniProt P60844); assay: Mass spectra and ion mobility MS of AQPZ complex in three detergents (Example 2); set-up: species or system E. coli; conditions: for experimental collisional cross section (CCS) / folded state: AQPZ, IM-MS, CIU fingerprints, C8E4 at ELAB <1500; for species in mass spectrum (expected oligomer versus dissociation products): tetrameric AQPZ, sample cone 10 volts, collision voltage 200 volts
Procedure: as §1, §2, §3, §4, §5

Aquaporin Z (AQPZ) [4] = target: T2, Aquaporin Z (AQPZ); assay: Phospholipid binding to AQPZ resolved by native MS / IM-MS in C8E4; set-up: species or system E. coli; conditions: for # Bound (number of resolvable phospholipids bound): AQPZ in C8E4, optimised P:L:D ratio of Table 2
ammonia channel (AmtB) = ammonia channel (AmtB) (Escherichia coli, UniProt P69681); assay: Phospholipid binding to AmtB resolved by native MS / IM-MS in C8E4; set-up: species or system E. coli; conditions: AmtB in C8E4; optimised P:L:D ratio of Table 2

T2 sequence (P60844 whole entry): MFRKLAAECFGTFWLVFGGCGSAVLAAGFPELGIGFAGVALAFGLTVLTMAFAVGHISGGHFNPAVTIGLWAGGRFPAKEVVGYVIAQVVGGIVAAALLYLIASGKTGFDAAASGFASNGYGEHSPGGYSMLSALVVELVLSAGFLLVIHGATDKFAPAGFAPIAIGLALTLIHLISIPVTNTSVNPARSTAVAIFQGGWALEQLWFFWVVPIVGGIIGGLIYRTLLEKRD

Molecule | Zavg (mean charge state) [1] | # Bound (number of resolvable phospholipids bound) [2] | further results
Octyl Glucose Neopentyl Glycol [OGNG] | 27.9 | – | –
CCCCCCCC/C=C\CCCCCCCCCCCCCC(=O)OC[C@H](COP(=O)([O-])OCC[N+](C)(C)C)OC(=O)CCCCCCCCCCCCC/C=C\CCCCCCCC (stereo in doubt) [DNPC, 1,2-dinervonoyl-sn-glycero-3-phosphocholine (24:1 Cis)] | – | 2 | –
CCCCCCCCO[C@@H]1O[C@H](CO)[C@@H](O)[C@H](O)[C@H]1O [OG, n-Octyl-β-D-glucopyranoside] | 31.2 | – | –
CCCCCCCCS[C@@H]1O[C@H](CO)[C@@H](O)[C@H](O)[C@H]1O [OTG, n-Octyl-β-D-thioglucopyranoside] | 31.9 | – | –
CCCCCCCCCCCOC1OC(CO)C(OC2OC(CO)C(O)C(O)C2O)C(O)C1O [UDM, n-Undecyl-β-D-maltoside] | 30.3 | – | –
CCCCCCCCCCO[C@@H]1O[C@H](CO)[C@@H](O[C@H]2O[C@H](CO)[C@@H](O)[C@H](O)[C@H]2O)[C@H](O)[C@H]1O [DM, n-Decyl-β-D-maltoside] | 31.4 | – | –
OC[C@H]1O[C@H](O[C@H]2[C@H](O)[C@@H](O)[C@H](OCCCCCCC3CCCCC3)O[C@@H]2CO)[C@H](O)[C@@H](O)[C@@H]1O [Cy6, Cymal-6] | 30.5 | – | –
CCCCCCCCCO[C@@H]1O[C@H](CO)[C@@H](O)[C@H](O)[C@H]1O [NG, n-Nonyl-β-D-glucopyranoside] | 30.4 | – | experimental collisional cross section (CCS) / folded state (ammonium channel (AmtB)): no CCS could be observed indicating native structure; species in mass spectrum (expected oligomer versus dissociation products) (ammonium channel (AmtB)): mainly dissociation products; experimental collisional cross section (CCS) / folded state (Aquaporin Z (AQPZ) [3]): the complex is unfolded; species in mass spectrum (expected oligomer versus dissociation products) (Aquaporin Z (AQPZ) [3]): mainly dissociation products
CCCCCCCCCCCCS[C@@H]1O[C@H](CO)[C@@H](O[C@H]2O[C@H](CO)[C@@H](O)[C@H](O)[C@H]2O)[C@H](O)[C@H]1O [DDTM, n-Dodecyl-β-D-thiomaltopyranoside] | 30.0 | – | –
CCCCCCCC/C=C\CCCCCCCC(=O)OC[C@H](COP(=O)([O-])OCC[N+](C)(C)C)OC(=O)CCCCCCC/C=C\CCCCCCCC (stereo in doubt) [DOPC, 1,2-dioleoyl-sn-glycero-3-phosphocholine (18:1 Cis)] | – | 2 | –
CCCCCCCCCCCCO[C@@H]1O[C@H](CO)[C@@H](O[C@H]2O[C@H](CO)[C@@H](O)[C@H](O)[C@H]2O)[C@H](O)[C@H]1O [DDM, n-Dodecyl-β-D-maltoside] | 30.4 | – | experimental collisional cross section (CCS) / folded state (ammonium channel (AmtB)): all unfolded CCS values; species in mass spectrum (expected oligomer versus dissociation products) (ammonium channel (AmtB)): mainly dissociation products; experimental collisional cross section (CCS) / folded state (Aquaporin Z (AQPZ) [3]): all unfolded CCS values; species in mass spectrum (expected oligomer versus dissociation products) (Aquaporin Z (AQPZ) [3]): mainly dissociation products
CCCCCCCC/C=C\CCCCCCCCCCCC(=O)OC[C@H](COP(=O)([O-])OCC[N+](C)(C)C)OC(=O)CCCCCCCCCCC/C=C\CCCCCCCC (stereo in doubt) [DEPC, 1 ,2-dierucoyl-sn-glycero-3-phosphocholine (22:1 Cis)] | – | 2 | –
OC[C@H]1O[C@H](O[C@H]2[C@H](O)[C@@H](O)[C@H](OCCCCCC3CCCCC3)O[C@@H]2CO)[C@H](O)[C@@H](O)[C@@H]1O [Cy5, Cymal-5] | 31.3 | – | –
polyoxyethylene (8) dodecyl ether [C12E8] | 25.8 | – | –
L-α-phosphatidylethanolamine (E. coli) [PE] | – | 1 | # Bound (number of resolvable phospholipids bound) (Aquaporin Z (AQPZ) [4]): 1; # Bound (number of resolvable phospholipids bound) (ammonia channel (AmtB)): 2
1-palrnitoyl-2-oleoyl-sn-glycero-3-phosphocholine (16:0-18:1) [PC] | – | 3 | # Bound (number of resolvable phospholipids bound) (Aquaporin Z (AQPZ) [4]): 3; bound phospholipid molecules (Aquaporin Z (AQPZ) [4]; AQPZ tetramer, mass spectra and ion mobility (FIG. 9)): up to four; bound phospholipid molecules resolved (Aquaporin Z (AQPZ) [4]; AQPZ, collision voltage 130 V (FIG. 6a)): one to six; # Bound (number of resolvable phospholipids bound) (ammonia channel (AmtB)): 3
CCCC/C=C\CCCCCCCC(=O)OC[C@H](COP(=O)([O-])OCC[N+](C)(C)C)OC(=O)CCCCCCC/C=C\CCCC (stereo in doubt) [DMPC, 1,2-dimyristoleoyl-sn-glycero-3-phosphocholine (14:1 Cis)] | – | 2 | –
CCCCCCCC/C=C\CCCCCCCC(=O)OC[C@H](COP(=O)(O)O[C@H]1C(O)C(O)C(O)[C@@H](OP(=O)(O)O)C1O)OC(=O)CCCCCCC/C=C\CCCCCCCC (some centres unmarked) [PI] | – | 4 | –
CCCCCCCCOCCOCCOCCOCCO [C8E4, tetraethylene glycol monooctyl ether] | 21.3 | – | experimental collisional cross section (CCS) / folded state (ammonium channel (AmtB)): consistent with calculated CCS values from their respective crystal structure; species in mass spectrum (expected oligomer versus dissociation products) (ammonium channel (AmtB)): no observable dissociation products; experimental collisional cross section (CCS) / folded state (Aquaporin Z (AQPZ) [3]): consistent with calculated CCS values from their respective crystal structure; species in mass spectrum (expected oligomer versus dissociation products) (Aquaporin Z (AQPZ) [3]): no observable dissociation products
CCCCCC/C=C\CCCCCCCC(=O)OC[C@H](COP(=O)([O-])OCC[N+](C)(C)C)OC(=O)CCCCCCC/C=C\CCCCCC (stereo in doubt) [DPPC, 1,2-dipalmitoleoyl-sn-glycero-3-phosphocholine (16:1 Cis)] | – | 2 | –
CCCCCCCC/C=C\CCCCCCCCCC(=O)OC[C@H](COP(=O)([O-])OCC[N+](C)(C)C)OC(=O)CCCCCCCCC/C=C\CCCCCCCC (stereo in doubt) [DIPC, 1,2-dieicosenoyl-sn-glycero-3-phosphocholine (20:1 Cis)] | – | 2 | –
polyethylene glycol tert-octylphenyl ether [TX100] | 21.6 | – | –
polyoxyethylene (20) cetyl ether [C16E20] | 25.0 | – | –
